Measured values taken from doi:10.1101/2025.04.10.648175v1 (biorxiv, 2025).

Tests used:
AzoTag1 = assay: isothermal titration calorimetry; format: binding; conditions: 20 mM HEPES-NaOH, 150 mM NaCl, pH 7.5, 25 °C, 0.5% DMSO; one-site model
AzoTag16 = assay: isothermal titration calorimetry; format: binding; conditions: 20 mM HEPES-NaOH, 150 mM NaCl, pH 7.5, 25 °C, 0.8% DMSO; one-site model

| Kd (AzoTag1) | Kd (AzoTag16) | SMILES |
| --- | --- | --- |
| 805 ± 22.6 nM |  | CCNC(=O)c1cc(F)c(/N=N\c2c(F)cc(C(=O)NCCOCCOCC(=O)NC)cc2F)c(F)c1 [compound 1, cis-Et-FAzo] |
|  | 14.03 ± 0.02 nM | CNC(=O)COCCOCCNC(=O)c1cc(F)c(/N=N\c2c(F)cc(C(=O)NCCC(=O)O)cc2F)c(F)c1 [compound 2, cis-Ca-FAzo] |
